{
  "source": "PubChem BioAssay AID449762",
  "about": "(Southern Research Specialized Biocontainment Screening …, 2010)",
  "test_system": "M. tuberculosis H37Rv growth inhibition, 7H9 media",
  "experiment": "M. tuberculosis growth inhibition, HTS (AID 449762);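 also: bacterial growth assessed after seven days of incubation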",
  "conditions": "for IC90: measured here: IC90 growth inhibition",
  "note": "Inconclusive results are not listed.",
  "data": [
    {"compound": "CN1C(=O)/C(=C/c2ccccc2Cl)Sc2ccc(C(=O)NCc3cccnc3)cc21", "values": [
      {"measurement": "IC50", "value": 23.2, "unit": "µM"},
      {"measurement": "IC90", "value": 68.9, "unit": "µM"}
    ]},
    {"compound": "O=C(NCC1CC1)c1cc([N+](=O)[O-])cc([N+](=O)[O-])c1", "values": [
      {"measurement": "IC50", "value": 5.75, "unit": "µM"},
      {"measurement": "IC90", "value": 6.43, "unit": "µM"}
    ]},
    {"compound": "c1ccc(-c2cn3c(n2)CCc2ccc4cccnc4c2-3)cc1", "values": [
      {"measurement": "IC50", "value": 8.12, "unit": "µM"},
      {"measurement": "IC90", "value": 41.2, "unit": "µM"}
    ]},
    {"compound": "COc1ccc(-c2nc(CN3CCN(c4cc(C)nc(C)c4)CC3)c(C)o2)c2ccccc12", "values": [
      {"measurement": "IC50", "value": 19.6, "unit": "µM"},
      {"measurement": "IC90", "value": 25.2, "unit": "µM"}
    ]},
    {"compound": "CC(C)(C)c1nn(-c2ccccc2)c2[nH]c(=O)c(CNCc3ccc4c(c3)OCO4)cc12", "values": [
      {"measurement": "IC50", "value": 20.4, "unit": "µM"},
      {"measurement": "IC90", "value": 27.3, "unit": "µM"}
    ]},
    {"compound": "N#Cc1c(SCC(N)=O)nsc1SCc1ccccc1Cl", "values": [
      {"measurement": "IC50", "value": 12.6, "unit": "µM"},
      {"measurement": "IC90", "value": 34.7, "unit": "µM"}
    ]},
    {"compound": "Cc1cc(C)n(-c2nc(Nc3ccccc3C(F)(F)F)nc(-n3nc(C)cc3C)n2)n1", "values": [
      {"measurement": "IC50", "value": 0.65, "unit": "µM"},
      {"measurement": "IC90", "value": 1.56, "unit": "µM"}
    ]},
    {"compound": "CCc1ccc2oc(-c3ccc(OC)cc3)cc(=Nc3c(C)n(C)n(-c4ccccc4)c3=O)c2c1", "values": [
      {"measurement": "IC50", "value": 22.4, "unit": "µM"},
      {"measurement": "IC90", "value": 25.1, "unit": "µM"}
    ]},
    {"compound": "Cc1cc(-n2c(C)cc(C(=O)COc3ccc4ccc(=O)oc4c3)c2C)no1", "values": [
      {"measurement": "IC50", "value": 68.6, "unit": "µM"},
      {"measurement": "IC90", "value": "> 100", "unit": "µM"}
    ]},
    {"compound": "OC(CN1CCN(c2ccccn2)CC1)Cn1c2ccccc2c2ccccc21", "note": "(configuration not stated)", "values": [
      {"measurement": "IC50", "value": 36.1, "unit": "µM"},
      {"measurement": "IC90", "value": 51.7, "unit": "µM"}
    ]},
    {"compound": "CC(C)(C)c1nc2sc3c(c2c(=O)o1)CCCC3", "values": [
      {"measurement": "IC90", "value": "> 100", "unit": "µM"}
    ]},
    {"compound": "Cc1sc2ncnc(N3CCC(C(=O)NCC(=O)Nc4ccc(F)c(F)c4)CC3)c2c1C", "values": [
      {"measurement": "IC50", "value": 37.9, "unit": "µM"},
      {"measurement": "IC90", "value": 50, "unit": "µM"}
    ]},
    {"compound": "Cc1[nH][nH]c(=O)c1C(c1ccc(-c2ccc(Cl)c(Cl)c2)o1)c1c(C)[nH][nH]c1=O", "values": [
      {"measurement": "IC50", "value": 53.4, "unit": "µM"},
      {"measurement": "IC90", "value": 85.6, "unit": "µM"}
    ]},
    {"compound": "O=C(c1ccc(CNc2c(N3CCCC3)c(=O)c2=O)cc1)N1CC=C(c2ccccc2)CC1", "values": [
      {"measurement": "IC50", "value": 0.76, "unit": "µM"},
      {"measurement": "IC90", "value": 0.87, "unit": "µM"}
    ]},
    {"compound": "CN(CCCCCCCCCCN(C)C(=O)Oc1cccc([N+](C)(C)C)c1)C(=O)Oc1cccc([N+](C)(C)C)c1", "values": [
      {"measurement": "IC50", "value": 1.49, "unit": "µM"},
      {"measurement": "IC90", "value": 4.04, "unit": "µM"}
    ]},
    {"compound": "CC1(C)c2[nH]c3ccccc3c2C[C@@H]2C(=O)N(Cc3ccccc3F)C(=O)N21", "values": [
      {"measurement": "IC50", "value": 47.1, "unit": "µM"},
      {"measurement": "IC90", "value": "> 100", "unit": "µM"}
    ]},
    {"compound": "O=C(Nc1nc2nc(-c3ccccc3)cc(=O)n2[nH]1)c1ccccc1", "values": [
      {"measurement": "IC50", "value": 17.8, "unit": "µM"},
      {"measurement": "IC90", "value": "> 100", "unit": "µM"}
    ]},
    {"compound": "CCCC1CC(C)(c2csc(Nc3ccc(OCC)cc3)n2)OC1=O", "note": "(configuration not stated)", "values": [
      {"measurement": "IC50", "value": 33.5, "unit": "µM"},
      {"measurement": "IC90", "value": 46.5, "unit": "µM"}
    ]},
    {"compound": "CCOC(=O)c1cnc(-n2nc(C)cc2C)nc1NNc1cc(C)nc(-c2ccccc2)n1", "values": [
      {"measurement": "IC50", "value": 23.7, "unit": "µM"},
      {"measurement": "IC90", "value": 92, "unit": "µM"}
    ]},
    {"compound": "CC1(CCc2ccccc2)NC(=S)N(c2ccc(Cl)cc2)N1", "note": "(configuration not stated)", "values": [
      {"measurement": "IC90", "value": "> 100", "unit": "µM"}
    ]},
    {"compound": "S=C(NCc1ccc(Cl)cc1)NC12CC3CC(CC(C3)C1)C2", "values": [
      {"measurement": "IC50", "value": 0.7, "unit": "µM"},
      {"measurement": "IC90", "value": 11.6, "unit": "µM"}
    ]},
    {"compound": "CC1=NN(c2ccc(C)c(C)c2)C(=O)/C1=C\\C=C\\c1ccc([N+](=O)[O-])o1", "values": [
      {"measurement": "IC50", "value": 3.14, "unit": "µM"},
      {"measurement": "IC90", "value": 15.5, "unit": "µM"}
    ]},
    {"compound": "CC(NCCCOc1cccc2ccccc12)c1ccccc1", "note": "(configuration not stated)", "values": [
      {"measurement": "IC50", "value": 22.6, "unit": "µM"},
      {"measurement": "IC90", "value": 31.3, "unit": "µM"}
    ]},
    {"compound": "CC(C)(C)c1ccc(-c2nc3[nH]c(=O)cc(NC(=O)c4ccco4)n3n2)cc1", "values": [
      {"measurement": "IC50", "value": 74.4, "unit": "µM"},
      {"measurement": "IC90", "value": "> 100", "unit": "µM"}
    ]},
    {"compound": "COc1ccc(C(C[N+](=O)[O-])c2c(-c3ccccc3)cc3ccccn23)c(OC)c1", "note": "(configuration not stated)", "values": [
      {"measurement": "IC50", "value": 14.9, "unit": "µM"},
      {"measurement": "IC90", "value": 38.6, "unit": "µM"}
    ]},
    {"compound": "S=c1nc2ccccc2c2nc(-c3ccccc3)[nH]n12", "values": [
      {"measurement": "IC50", "value": 10.4, "unit": "µM"},
      {"measurement": "IC90", "value": 14.6, "unit": "µM"}
    ]},
    {"compound": "CCOC(=O)c1ccc(N=C2S/C(=C\\c3cc(C)n(-c4cccnc4)c3C)C(=O)N2C)cc1", "values": [
      {"measurement": "IC50", "value": 96.6, "unit": "µM"},
      {"measurement": "IC90", "value": "> 100", "unit": "µM"}
    ]},
    {"compound": "O=C(/C=C/Sc1ncn[nH]1)c1ccc(Cl)cc1", "values": [
      {"measurement": "IC50", "value": 16.8, "unit": "µM"},
      {"measurement": "IC90", "value": 43.8, "unit": "µM"}
    ]},
    {"compound": "O=Cc1ccc(-c2ccc(Cl)cc2Cl)[nH]1", "values": [
      {"measurement": "IC90", "value": "> 100", "unit": "µM"}
    ]},
    {"compound": "CC(=O)c1sc(NC(=O)c2cc(=O)c3ccccc3o2)nc1C", "values": [
      {"measurement": "IC50", "value": 14.3, "unit": "µM"},
      {"measurement": "IC90", "value": "> 100", "unit": "µM"}
    ]},
    {"compound": "CC(C)OC(=O)/C(C#N)=C/c1ccc(-c2ccc(SC(F)F)cc2)o1", "values": [
      {"measurement": "IC50", "value": 5.28, "unit": "µM"},
      {"measurement": "IC90", "value": 16.8, "unit": "µM"}
    ]},
    {"compound": "O=C(OCC(=O)c1cccs1)C1=COCCO1", "values": [
      {"measurement": "IC50", "value": 21.4, "unit": "µM"},
      {"measurement": "IC90", "value": "> 100", "unit": "µM"}
    ]},
    {"compound": "CCOC(=O)C(C)Oc1ccc(OCc2ccccc2)cc1", "note": "(configuration not stated)", "values": [
      {"measurement": "IC50", "value": 4.2, "unit": "µM"},
      {"measurement": "IC90", "value": 10.9, "unit": "µM"}
    ]},
    {"compound": "CCOC(=O)CCCc1ccc(/C(C)=N/NC(N)=S)cc1", "values": [
      {"measurement": "IC50", "value": 6.5, "unit": "µM"},
      {"measurement": "IC90", "value": 14.7, "unit": "µM"}
    ]},
    {"compound": "Cc1ccc(C2C3=C(CC(C)(C)CC3=O)N=C3c4ccccc4C(=O)C32)cc1", "note": "(configuration not stated)", "values": [
      {"measurement": "IC50", "value": 66.4, "unit": "µM"},
      {"measurement": "IC90", "value": 90.7, "unit": "µM"}
    ]},
    {"compound": "COc1cccc(NC(=O)CNC(=O)Cn2cnc3sc4c(c3c2=O)CCCC4)c1", "values": [
      {"measurement": "IC50", "value": 36.6, "unit": "µM"},
      {"measurement": "IC90", "value": "> 100", "unit": "µM"}
    ]},
    {"compound": "CCCc1cnc(NCCNCC(O)COc2ccc(Cl)c(Cl)c2)nc1", "note": "(configuration not stated)", "values": [
      {"measurement": "IC50", "value": 17.1, "unit": "µM"},
      {"measurement": "IC90", "value": 22.1, "unit": "µM"}
    ]},
    {"compound": "Nc1nonc1C(=O)NCCNCc1c(OCc2ccccc2F)ccc2ccccc12", "values": [
      {"measurement": "IC50", "value": 39.8, "unit": "µM"},
      {"measurement": "IC90", "value": 50.5, "unit": "µM"}
    ]},
    {"compound": "CC1=CC(=O)c2c(O)ccc(O)c2C1=O", "values": [
      {"measurement": "IC50", "value": 8.02, "unit": "µM"},
      {"measurement": "IC90", "value": 12.2, "unit": "µM"}
    ]},
    {"compound": "Cc1ccc(N(CCC#N)C(=O)CCl)cc1C", "values": [
      {"measurement": "IC50", "value": 0.98, "unit": "µM"},
      {"measurement": "IC90", "value": 4.41, "unit": "µM"}
    ]},
    {"compound": "CCOc1cc2c3c(c1)C1(C(=O)N3C(C)(C)CC2C)C(C#N)=C(N)N2C(=C1C#N)Nc1ccccc12", "note": "(configuration not stated)", "values": [
      {"measurement": "IC50", "value": 22.4, "unit": "µM"},
      {"measurement": "IC90", "value": "> 100", "unit": "µM"}
    ]},
    {"compound": "Clc1ccc(CCC(Cn2ccnc2)Sc2c(Cl)cccc2Cl)cc1", "note": "(configuration not stated)", "values": [
      {"measurement": "IC50", "value": 7.79, "unit": "µM"},
      {"measurement": "IC90", "value": 14.3, "unit": "µM"}
    ]},
    {"compound": "NNC(=S)Nc1ccccc1Cl", "values": [
      {"measurement": "IC50", "value": 24.4, "unit": "µM"},
      {"measurement": "IC90", "value": 27.8, "unit": "µM"}
    ]},
    {"compound": "CCc1ccc2nc(N3C(=O)C(O)=C(C(=O)c4ccco4)C3c3cccs3)sc2c1", "note": "(configuration not stated)", "values": [
      {"measurement": "IC50", "value": 83.2, "unit": "µM"},
      {"measurement": "IC90", "value": 92.3, "unit": "µM"}
    ]},
    {"compound": "O=C(Nc1ccc(Oc2cccc(C(F)(F)F)c2)nc1)c1cccs1", "values": [
      {"measurement": "IC50", "value": 39.6, "unit": "µM"},
      {"measurement": "IC90", "value": "> 100", "unit": "µM"}
    ]}
  ]
}
